{"source": "paper PMC7617456", "about": "“Cryptosporidium lysyl-tRNA synthetase inhibitors define the interplay between solubility and permeability required to achieve efficacy” (Science translational medicine, 2024)", "key": {"[1]": {"test": "Biopharmaceutical Classification System (BCS) categorization", "type": "physicochemical", "settings": "cut-offs solubility 100 μM, permeability 30 nm/s; Table S1 prints 1-4 for I-IV", "description": "To investigate our key parameters, solubility and permeability, we used the Biopharmaceutical Classification System (BCS)([13]) to categorize our tool compounds in a methodical way. […] Restricting either of these properties is likely to have a rate-determining effect on absorption (Class II, purple; Class III, teal). Using the BCS to prioritize compounds for in vivo studies allowed us to systematically examine these individual property combinations and determine whether modulating solubility or permeability influenced compound efficacy. Our hypothesis was that slow absorption due to suboptimal solubility or permeability (i.e. Class II or Class III) would maximize compound concentration at the biophase following a single oral dose.\n(A) Schematic of Biopharmaceutical Classification System (BCS). (B) Aqueous solubility and Parallel Artificial Membrane Permeability Assay (PAMPA) measurements of tool compounds from each BCS class. Data are means of two technical replicates. Solubility and permeability cut-offs were defined at 100 μM and 30 nm/s respectively. Raw data reported for all tool compounds in Table S1. (C) NOD SCID Gamma mice were infected with wild type C. parvum. Vehicle, positive control, or tool compound was administered via oral gavage starting day 7 post infection (PI) for 7 days (gray box indicates treatment period). Fecal samples were collected on days indicated by arrows. Fecal samples were collected from individual mice (4 animals per treatment group) and analyzed by qPCR to quantify parasite shedding (oocysts/g). (D) Log reduction in oocyst shedding measured on day 14 PI vs day 21 PI for tool compounds (colored by BCS class) dosed orally at either 30 or 50 mg/kg twice a day (BID) for 7 days in NOD SCID Gamma mice. […] Mean oocyst shedding was determined for each group of n=4 mice, for all compounds tested. Log reduction in oocyst shedding was calculated as log (mean oocysts on day 7) – log (mean oocysts on day 14 or 21)."}, "C. parvum": {"test_system": "C. parvum", "test": "microbe, parasite or virus in culture", "type": "cell-based, Cryptosporidium parvum"}, "[2]": {"test": "Aqueous (kinetic) solubility by UHPLC", "type": "physicochemical", "settings": "PBS pH 7.4, UHPLC", "protocol": "As previously described.(27) […]\nsamples were prepared by adding 5 µL stock to PBS pH 7.4 (195 µL). This solution was mixed […]\nThe solubility test samples were […]\nvacuum ﬁ ltered (Millipore Multiscreen HTS ﬁ lter, 96-well format) to remove any undissolved […]\nmaterial. The ﬁ ltrate was analyzed for dissolved drug compound using a truncated UHPLC […]\nmethodology. A calibration solution was prepared for each test compound. The 10 mM stock […]\nsolution was diluted in DMSO to give a 500 µM solution. This was further diluted with 50:50 […]\nacetonitrile:water to give a 50 µM solution. Aliquots (0.2, 2.0, and 5.0 µL) of this 50 µM solution were injected onto the UHPLC system, and the areas of the resultant peaks were […]\nintegrated to produce a calibration line. Aliquots of the test sample ﬁ ltrate (0.4 and 5.0 µL) […]\nwere injected onto the UHPLC system and the resultant test compound peak areas quantiﬁ ed […]\nusing the calibration line. […]"}, "PAMPA permeability": {"test": "PAMPA permeability", "type": "in vitro ADME", "settings": "for Papp at 5 h, 10 µM: PAMPA, pH 7.4, pH 7.4; for PAMPA Papp: pH 7.4", "protocol": "Solubility test samples were prepared by adding 5 μL stock to PBS pH 7.4 (195 μL). […] […] vacuum […] (Millipore Multiscreen HTS fi lter, 96-well format) to remove any undissolved material. The […] analyzed for dissolved drug compound using a truncated UHPLC methodology. A calibration solution was prepared for each test compound. […] Aliquots of the test sample […] (0.4 and 5.0 μL) were injected onto the UHPLC system and the resultant test compound peak areas quantifi ed […] PAMPA per meability As previously described.(28) The permeability assay was performed using a 96-well precoated BD Gentest PAMPA plate (BD Biosciences). Each well was divided into two chambers: donor and acceptor, separated by a lipid-oil-lipid trilayer constructed in a porous fi lter. […] Stock solutions (5 mM) of the compound were prepared in DMSO. […] The compound dissolved in phosphate buffered saline was added to the donor side of the membrane, and phosphate-buffered saline without the compound was added to the acceptor side. The PAMPA plate was left at room temperature for 5 h then an aliquot (100 μL) was removed from both acceptor and donor compartments and mixed with acetonitrile (80 μL) containing an internal standard: donepezil at 50 ng/mL. The samples were centrifuged (10 min, 5 °C, 3270×g) to sediment lipids and sealed prior to UPLC-MS/MS analysis using a Quattro Premier XE (Waters Corp, USA). Recovery of the compound from donor and acceptor wells was calculated, and data were only accepted when recovery exceeded 70%."}, "[3]": {"settings": "Cryptosporidium parvum, HCT-8, 48 h, read-out: C. parvum EC50, co-cultured with HCT-8 cells for 48 hrs"}, "[4]": {"settings": "Cryptosporidium parvum, HCT-8, read-out: C. parvum EC90"}, "[5]": {"settings": "25 °C, aqueous buffer, kinetic from dmso stock"}, "[6]": {"settings": "calculated from the average EC50 and hill slope, read-out: C. parvum EC90"}, "[7]": {"settings": "co-cultured with HCT-8 cells for 48 hrs, read-out: C. parvum EC50"}}, "note": "Like-named read-outs stand apart in the source and are kept apart here."}
{"smiles": "Nc1cc(F)cc2c(=O)cc(C(=O)NCC3(O)CCCCC3)oc12", "note": "[DDD229]", "values": [{"measurement": "BCS Class", "setting": "[1]", "value": 4}, {"measurement": "EC50", "setting": "C. parvum; [3]", "value": 30, "unit": "nM"}, {"measurement": "EC90", "setting": "C. parvum; [4]", "value": 80, "unit": "nM"}, {"measurement": "solubility at 24 h", "setting": "[2]; [5]", "value": 1.9, "unit": "µM"}, {"measurement": "Papp at 5 h, 10 µM", "setting": "PAMPA permeability", "value": 1.9, "unit": "×10⁻⁶ cm/s"}]}
{"smiles": "Nc1nc2c(c(C(F)F)n1)C(=O)N(C[C@@H]1CCC[C@H](C(F)(F)F)C1)C2", "note": "[DDD352]", "values": [{"measurement": "BCS Class", "setting": "[1]", "value": 2}, {"measurement": "EC90", "setting": "C. parvum; [6]", "value": 60, "unit": "nM"}, {"measurement": "EC50", "setting": "C. parvum; [7]", "value": 20, "unit": "nM"}, {"measurement": "solubility at 24 h", "setting": "[2]", "value": 32, "unit": "µM"}, {"measurement": "PAMPA Papp", "setting": "PAMPA permeability", "value": 19.3, "unit": "×10⁻⁶ cm/s"}]}
{"smiles": "Cc1nc(N)nc2c1C(=O)N(C[C@@H]1CCC[C@H](C(F)(F)F)C1)C2", "note": "[DDD478]", "values": [{"measurement": "BCS Class", "setting": "[1]", "value": 2}, {"measurement": "EC90", "setting": "C. parvum; [6]", "value": 40, "unit": "nM"}, {"measurement": "EC50", "setting": "C. parvum; [7]", "value": 20, "unit": "nM"}, {"measurement": "solubility at 24 h", "setting": "[2]", "value": 57, "unit": "µM"}, {"measurement": "PAMPA Papp", "setting": "PAMPA permeability", "value": 13.8, "unit": "×10⁻⁶ cm/s"}]}
{"smiles": "COc1cc(NS(=O)(=O)CCN2CCCC2)c2oc(C(=O)N[C@@H](C)C3CCCCC3)cc(=O)c2c1", "note": "[DDD582]", "values": [{"measurement": "BCS Class", "setting": "[1]", "value": 3}, {"measurement": "EC50", "setting": "C. parvum; [3]", "value": 150, "unit": "nM"}, {"measurement": "EC90", "setting": "C. parvum; [4]", "value": 370, "unit": "nM"}, {"measurement": "solubility at 24 h", "setting": "[2]; [5]", "value": 225, "unit": "µM"}, {"measurement": "Papp at 5 h, 10 µM", "setting": "PAMPA permeability", "value": 1.6, "unit": "×10⁻⁶ cm/s"}]}
{"smiles": "COc1ccc2oc(C(=O)NCC3(O)CCCCC3)cc(=O)c2c1", "note": "[DDD583]", "values": [{"measurement": "BCS Class", "setting": "[1]", "value": 2}, {"measurement": "EC50", "setting": "C. parvum; [3]", "value": 140, "unit": "nM"}, {"measurement": "EC90", "setting": "C. parvum; [4]", "value": 330, "unit": "nM"}, {"measurement": "solubility at 24 h", "setting": "[2]; [5]", "value": 33, "unit": "µM"}, {"measurement": "Papp at 5 h, 10 µM", "setting": "PAMPA permeability", "value": 11.5, "unit": "×10⁻⁶ cm/s"}]}
{"smiles": "O=C(NCC1CCCCC1)c1cc(=O)c2cc(F)c(F)c(O)c2o1", "note": "[DDD690]", "values": [{"measurement": "BCS Class", "setting": "[1]", "value": 1}, {"measurement": "EC50", "setting": "C. parvum; [3]", "value": 190, "unit": "nM"}, {"measurement": "EC90", "setting": "C. parvum; [4]", "value": 370, "unit": "nM"}, {"measurement": "solubility at 24 h", "setting": "[2]; [5]", "value": 226, "unit": "µM"}, {"measurement": "Papp at 5 h, 10 µM", "setting": "PAMPA permeability", "value": 3.2, "unit": "×10⁻⁶ cm/s"}]}
{"smiles": "O=C(NCC1CCCCO1)c1cc(=O)c2ccc(F)c(O)c2o1", "note": "(stereo not shown) [DDD695]", "values": [{"measurement": "BCS Class", "setting": "[1]", "value": 3}, {"measurement": "EC50", "setting": "C. parvum; [3]", "value": 80, "unit": "nM"}, {"measurement": "EC90", "setting": "C. parvum; [4]", "value": 180, "unit": "nM"}, {"measurement": "solubility at 24 h", "setting": "[2]; [5]", "value": 236, "unit": "µM"}, {"measurement": "Papp at 5 h, 10 µM", "setting": "PAMPA permeability", "value": 1.1, "unit": "×10⁻⁶ cm/s"}]}
{"smiles": "O=C(NCC1CCCCC1)c1cc(=O)c2ccc(F)c(O)c2o1", "note": "[DDD714]", "values": [{"measurement": "BCS Class", "setting": "[1]", "value": 1}, {"measurement": "EC50", "setting": "C. parvum; [3]", "value": 30, "unit": "nM"}, {"measurement": "EC90", "setting": "C. parvum; [4]", "value": 50, "unit": "nM"}, {"measurement": "solubility at 24 h", "setting": "[2]; [5]", "value": 377, "unit": "µM"}, {"measurement": "Papp at 5 h, 10 µM", "setting": "PAMPA permeability", "value": 4.3, "unit": "×10⁻⁶ cm/s"}]}
{"smiles": "O=C(NCC1(O)CCCCC1)c1cc(=O)c2ccc(F)c(O)c2o1", "note": "[DDD844]", "values": [{"measurement": "BCS Class", "setting": "[1]", "value": 4}, {"measurement": "EC50", "setting": "C. parvum; [3]", "value": 170, "unit": "nM"}, {"measurement": "EC90", "setting": "C. parvum; [4]", "value": 460, "unit": "nM"}, {"measurement": "solubility at 24 h", "setting": "[2]; [5]", "value": 63, "unit": "µM"}, {"measurement": "Papp at 5 h, 10 µM", "setting": "PAMPA permeability", "value": 0.17, "unit": "×10⁻⁶ cm/s"}]}
{"smiles": "Nc1nc2c(c(C(F)(F)F)n1)C(=O)N(CC1CCCC3(CC3)C1)C2", "note": "(stereo not shown) [DDD909]", "values": [{"measurement": "BCS Class", "setting": "[1]", "value": 2}, {"measurement": "EC90", "setting": "C. parvum; [6]", "value": 130, "unit": "nM"}, {"measurement": "EC50", "setting": "C. parvum; [7]", "value": 70, "unit": "nM"}, {"measurement": "solubility at 24 h", "setting": "[2]", "value": 14, "unit": "µM"}, {"measurement": "PAMPA Papp", "setting": "PAMPA permeability", "value": 17.4, "unit": "×10⁻⁶ cm/s"}]}
{"smiles": "O=C(NCC1(F)CCCCC1)c1cc(=O)c2ccc(F)c(O)c2o1", "note": "[DDD993]", "values": [{"measurement": "BCS Class", "setting": "[1]", "value": 1}, {"measurement": "EC50", "setting": "C. parvum; [3]", "value": 100, "unit": "nM"}, {"measurement": "EC90", "setting": "C. parvum; [4]", "value": 150, "unit": "nM"}, {"measurement": "solubility at 24 h", "setting": "[2]; [5]", "value": 234, "unit": "µM"}, {"measurement": "Papp at 5 h, 10 µM", "setting": "PAMPA permeability", "value": 6.3, "unit": "×10⁻⁶ cm/s"}]}
